26 compounds from US10098853B2, “Composition for treating atherosclerosis and a preparation method thereof” (KAOHSIUNG MEDICAL UNIVERSITY, priority 2011, dated 2018) can be followed below.

Entries after “also recorded” stand apart in the source; their conditions may differ.

Data set [1] relates to human aortic smooth muscle cells (HASMCs). Kind of data set: HASMCs proliferation induced by LPS (WST-1). Format: cell-based. The method, then: First, HASMCs were seeded into 96-well plates.
Chalcone compounds 1 to 29 at different concentrations prepared in Experiment 1 were used to determine the effect of HASMCs proliferation induced by LPS. […] In reference to the drug concentration for cytotoxicity that HASMCs tolerate, the chalcone compounds having the relevant substituents to compound 1 were selected (rather than all chalcone compounds) to compare with each other at the same concentration.
In general terms: Formazan colour is commonly taken as a measure of viable cells.

Another data set relates to Ki-67 protein. As to the kind of experiment: Ki-67 protein immunofluorescence in Ox-LDL stimulated HASMCs. Format: cell-based, human. As to conditions: Ox-LDL 30 μg/ml, 24 hours; for positive stains of Ki-67: compound 1 5 μg/ml or PD98059 10^−5 M. The method, then:
For analyzing the mechanisms of compound 1 on inhibiting HASMCs proliferation, the cellular marker for proliferation, Ki-67 protein (also known as MKI67), detected with green fluorescence was the index for HASMCs proliferation. The experiment method was to stimulate HASMCs with Ox-LDL (30 μg/ml) for 24 hours, and simultaneously compound 1 (5 μg/ml) or PD98059 (an ERK 1/2 inhibitor, 10^−5 M) was added. A mouse anti-Ki-67 monoclonal antibody was combined with a DyLight™488-conjugated second antibody to confirm the HASMCs proliferation. DAPI (4′,6-diamidino-2-phenylindole), a fluorescent stain that binds strongly to DNA, was used to localize cell nuclei. Cells were observed under flourescence microscopy. The proliferative cells were quantified by counting the ratio of DyLight™488 (green) fluorescence and DAPI (blue) fluorescence.

Data set [2] concerns human aortic smooth muscle cells (HASMCs). Kind of data set: HASMCs proliferation and cell viability induced by Ox-LDL (WST-1). As to conditions: FIG. 2; 1, 2.5 and 5 μg/ml, Ox-LDL 30 μg/ml, 24 hours.
Protocol: For analyzing whether each genus of flavonoid compounds could inhibit the activity of HASMCs proliferation, the proliferation and cell viability of HASMCs were determined using WST-1 reagent (Roche Applied Science, Penzberg, Germany). WST-1 is a tetrazolium salt that will be cleaved to formazan by mitochondrial dehydrogenases in viable cells. First, HASMCs were seeded into 96-well plates. […] At the end of incubation, WST-1 was added into cell medium and the amount of formazan was measured at a wavelength of 450 nm by an ELISA reader.
Another data set concerns cyclin D1. Kind of data set: Cyclin D1 protein expression in Ox-LDL treated HASMCs (immunoblotting). The note with it: FIG. 9, PD98059 10^−5 M, compound 1 5 μg/ml, rosiglitazone 5 μg/ml, Ox-LDL 30 μg/ml, 8 hours. Format: cell-based, human. The source says:
(§1) Three independent experiments are made in each group.
(In general: In western blotting, separated proteins are transferred to a membrane and probed.)

The subject of another data set is PPARα. Kind of data set: PPARα mRNA expression in HASMCs (real-time PCR). Format: cell-based, human. As to conditions: FIG. 6(b); with Ox-LDL 30 μg/ml, compound 1 5 μg/ml, 2, 4, 8 and 24 hours. For orientation: In qPCR the cycle at which signal appears reflects the starting amount.
Data set [3] concerns PPARγ. As to the kind of experiment: PPARγ mRNA expression in HASMCs (real-time PCR). Format: cell-based, human. How it is done:
The anti-inflammatory effect of compound 1 was determined by the mRNA expressions of IL-1β and IL-6. HASMCs were stimulated with Ox-LDL (30 μg/ml) for 8 hours, and simultaneously treated with (i) PD98059 (5 μg/ml), (ii) rosiglitazone (5 μg/ml), (iii) compound 1 (5 μg/ml) and (iv) rosiglitazone (5 μg/ml) plus compound 1 (5 μg/ml). […] SEQ ID Nos: 1 and 2 were paired in amplification of IL-1β gene, SEQ ID Nos: 3 and 4 were paired in amplification of IL-6 gene, SEQ ID Nos: 5 and 6 were paired in amplification of PPARα gene, SEQ ID Nos: 7 and 8 were paired in amplification of PPARγ gene, and SEQ ID Nos: 9 and 10 were paired in amplification of β-actin gene.
This experiment was performed to investigate the regulatory mechanism of compound 1 on PPARγ based on PPARγ mRNA expression in HASMCs. […]

For data set [4], the system named is PPARγ. Kind of data set: PPARγ protein expression in HASMCs (immunoblotting). Format: cell-based, human. The note with it: FIG. 7(b); compound 1 alone, 0, 1, 2.5 and 5 μg/ml, 4 and 8 hours. How it is done:
FIG. 7(a) and FIG. 7(b) respectively are (a) the diagram showing PPARγ mRNA expression and (b) an immunoblotting spectrum showing the PPARγ protein expression of compound 1 (0, 1, 2.5 and 5 μg/ml) on HASMCs for 4 and 8 hours. Data are represented as mean±S.D. in three independent experiments. a: p<0.001, b: p<0.01.
To further confirm whether compound 1 is an inducer of PPARγ for HASMCs, cells were stimulated with compound 1 alone.

For the next data set, the system named is cyclin D3. Kind of data set: Cyclin D3 protein expression in Ox-LDL treated HASMCs (immunoblotting). Format: cell-based, human. The note with it: FIG. 9, PD98059 10^−5 M, compound 1 5 μg/ml, rosiglitazone 5 μg/ml, Ox-LDL 30 μg/ml, 8 hours.
From the text: as §1

On to `O=C(/C=C/c1cccc(OCc2ccccc2)c1)c1ccccc1O` [compound 11], for which the “cytotoxicity to HASMCs” value in data set [1] (FIG. 11(c), 2 μg/ml) was “would lead to death of a part cells”.
In the case of `O=C(/C=C/c1ccccc1)c1ccccc1O` [compound 10], the “inhibition activity on HASMCs proliferation induced by LPS” value (“inhibition activity” below) in data set [1] (FIG. 11(b), 2.5 μg/ml) is “did not have inhibition activity”.
Still for that read-out and setting: in the case of `COc1ccc(/C=C/C(=O)c2ccccc2F)cc1` [compound 27] it was “inhibition activity of compound 1 was better than those of compounds 12 and 27”.
Consider `O=C(/C=C/c1ccccc1)c1cc(Br)ccc1O` [compound 19], for which, in data set [1] (FIG. 11(a), 5 μg/ml), the “cytotoxicity to HASMCs” value is “would lead to death of a part of cells” and the “inhibition activity” value is “had inhibition activity”.
`COc1ccc(/C=C/C(=O)c2ccc(O)cc2O)cc1` [compound 5]: in data set [1] (FIG. 11(b), 2.5 μg/ml), the “inhibition activity” value is “compound 1 rather than compound 5 had inhibition activity”.
Take `COc1cccc(/C=C/C(=O)c2ccc(Cl)cc2)c1` [compound 15]: in data set [1] (FIG. 11(c), 2 μg/ml), the “cytotoxicity to HASMCs” value is given as “would lead to death of a part cells”.
`O=C(/C=C/c1ccc(OCc2ccccc2)cc1)c1ccc(O)cc1O` [compound 3]: the “inhibition activity” value in data set [1] (FIG. 11(c), 2 μg/ml) is reported as “compound 3 rather than compound 6 had inhibition activity”.
Take `COc1cccc(/C=C/C(=O)c2cc(Br)ccc2O)c1` [compound 21]: in data set [1] (FIG. 11(a), 5 μg/ml), the “cytotoxicity to HASMCs” value is recorded as “would lead to death of a part of cells” and the “inhibition activity” value was “had inhibition activity”.
For `COc1ccc(/C=C/C(=O)c2ccccc2Cl)cc1` [compound 28], the “inhibition activity” value in data set [1] (FIG. 11(b), 2.5 μg/ml) is “slightly better than that of compounds 26 and 28”.
Still for that read-out and setting: in the case of `COc1ccc(/C=C/C(=O)c2ccccc2I)cc1` [compound 26] it was “slightly better than that of compounds 26 and 28”.
With `O=C(/C=C/c1ccc(OCc2ccccc2)cc1)c1cc(Br)ccc1O` [compound 23], in data set [1] (FIG. 11(a), 5 μg/ml), the “cytotoxicity to HASMCs” value was “would lead to death of a part of cells” and the “inhibition activity” value is listed as “had inhibition activity”.
For the compound `O=C(/C=C/c1ccc(OCc2ccccc2)cc1)c1ccccc1O` [compound 25], the “cytotoxicity to HASMCs” value in data set [1] (FIG. 11(a), 5 μg/ml) is “would result in HASMC death”.
As to `COc1ccc(/C=C/C(=O)c2ccccc2O)cc1` [compound 1], the “reduction of proliferative (Ki-67 positive) cells compared to Ox-LDL stimulated HASMCs” value in the data set on Ki-67 protein (FIG. 3, 5 μg/ml) was “about 10%”. Further, the “positive stains of Ki-67” value in the data set on Ki-67 protein is “decreased the positive stains of Ki-67”. Further, the “cell proliferation compared to Ox-LDL treatment group” value in data set [2] is “significantly decreased in a dose dependent manner”. Also, the “cyclin D1 protein expression induced by Ox-LDL” value in the data set on cyclin D1 was “significantly inhibited cyclin D1 and D3 protein upregulation induced by Ox-LDL”; in the data set with cyclin D1 (listed as Compound 1), “significantly decreased the cyclin D1 and D3 upregulation”. In addition, the “PPARα mRNA expression” value in the data set on PPARα was “neither Ox-LDL nor compound 1 stimulated PPARα mRNA upregulation”. In the data set with PPARγ [3] (FIG. 6(a), with Ox-LDL 30 μg/ml, compound 1 5 μg/ml), the “time at which maximum PPARγ mRNA expression was reached” value stood at 8 h. Moreover, the “PPARγ mRNA expression” value is “significantly increased PPARγ mRNA expression post 4 hours administration” with PPARγ [3] (FIG. 6(a), with Ox-LDL 30 μg/ml, compound 1 5 μg/ml, 2, 4, 8 and 24 hours); “significantly increased PPARγ mRNA and protein expression in dose and time dependent manners” in the data set with PPARγ [3] (FIG. 7(a), compound 1 alone, 0, 1, 2.5 and 5 μg/ml, 4 and 8 hours). The PPARγ protein expression result in the data set on PPARγ [4] is “significantly increased PPARγ mRNA and protein expression in dose and time dependent manners”. For the same compound, the “inhibition activity” value is “compound 1 rather than compound 7 has inhibition activity” in data set [1] (FIG. 11(a), 5 μg/ml); “compound 1 rather than compound 5 had inhibition activity” in data set [1] (FIG. 11(b), 2.5 μg/ml); “had the best inhibition activity” in data set [1] (FIG. 11(c), 2 μg/ml). In addition, the “cytotoxicity to HASMCs” value in data set [1] (FIG. 11(c), 2 μg/ml) is listed as “non-toxic to cells”. Further, the “cyclin D3 protein expression induced by Ox-LDL” value in the data set on cyclin D3 was “significantly inhibited cyclin D1 and D3 protein upregulation induced by Ox-LDL”; in the data set with cyclin D3 (listed as Compound 1), “significantly decreased the cyclin D1 and D3 upregulation”.
On to `COc1ccc(/C=C/C(=O)c2ccccc2)cc1` [compound 7], for which, in data set [1] (FIG. 11(a), 5 μg/ml), the “inhibition activity” value was “compound 1 rather than compound 7 has inhibition activity”.
As for `COc1cccc(/C=C/C(=O)c2ccccc2O)c1` [compound 4], the “inhibition activity” value in data set [1] (FIG. 11(a), 5 μg/ml) is “both had the similar inhibition activity”.
In the case of `COc1cccc(/C=C/C(=O)c2ccccc2)c1` [compound 8], the “inhibition activity” value in data set [1] (FIG. 11(c), 2 μg/ml) is on record as “did not have inhibition activity”.
With `O=C(/C=C/c1ccc(O)cc1)c1ccccc1` [compound 29], the “inhibition activity” value in data set [1] (FIG. 11(c), 2 μg/ml) is recorded as “had no inhibition activity”.
`COc1ccc(/C=C/C(=O)c2cc(Br)ccc2O)cc1` [compound 20]: in data set [1] (FIG. 11(a), 5 μg/ml), the “cytotoxicity to HASMCs” value was “would lead to death of a part of cells” and the “inhibition activity” value is recorded as “had inhibition activity”.
With `CN(CCOc1ccc(CC2SC(=O)NC2=O)cc1)c1ccccn1` (racemic) [rosiglitazone, (RS)-5-[4-(2-[methyl(pyridin-2-yl)amino]ethoxy)benzyl]thiazolidine-2,4-dione], the “cyclin D1 protein expression induced by Ox-LDL” value in the data set on cyclin D1 was “did not significantly decrease cyclin D1 and D3 protein expression; also recorded: but not PD98059 and rosiglitazone, significantly decreased the cyclin D1 and D3 upregulation”. Also, the “cyclin D3 protein expression induced by Ox-LDL” value in the data set on cyclin D3 is “did not significantly decrease cyclin D1 and D3 protein expression; also recorded: but not PD98059 and rosiglitazone, significantly decreased the cyclin D1 and D3 upregulation”.
As for `O=C(/C=C/c1ccccc1)c1ccccc1` [compound 9], the “inhibition activity” value in data set [1] (FIG. 11(c), 2 μg/ml) is reported as “showed no inhibition activity”.
`O=C(/C=C/c1cccc(OCc2ccccc2)c1)c1cc(Br)ccc1O` [compound 22]: the “cytotoxicity to HASMCs” value in data set [1] (FIG. 11(c), 2 μg/ml) is “would lead to death of a part cells”.
With `COc1cccc(/C=C/C(=O)c2cccc(Br)c2)c1` [compound 14], in data set [1] (FIG. 11(b), 2.5 μg/ml), the “inhibition activity” value was “compound 12 rather than compound 14 had inhibition activity”.
Same read-out and setting: in the case of `COc1ccc(/C=C/C(=O)c2ccccc2Br)cc1` [compound 12] it was “compound 12 rather than compound 14 had inhibition activity”.
`COc1cccc(-c2cc(=O)c3ccccc3o2)c1N` [PD98059, 2-(2-amino-3-methoxyphenyl)-chromen-4-one]: the “positive stains of Ki-67” value with Ki-67 protein was “decreased the positive stains of Ki-67”. Besides, the “cyclin D1 protein expression induced by Ox-LDL” value with cyclin D1 was “did not significantly decrease cyclin D1 and D3 protein expression; also recorded: but not PD98059 and rosiglitazone, significantly decreased the cyclin D1 and D3 upregulation”. Moreover, the “cyclin D3 protein expression induced by Ox-LDL” value in the data set with cyclin D3 was “did not significantly decrease cyclin D1 and D3 protein expression; also recorded: but not PD98059 and rosiglitazone, significantly decreased the cyclin D1 and D3 upregulation”.
For `COc1cccc(/C=C/C(=O)c2ccc(O)cc2O)c1` [compound 6], the “inhibition activity” value in data set [1] (FIG. 11(c), 2 μg/ml) is recorded as “compound 3 rather than compound 6 had inhibition activity”.
`O=C(/C=C/c1ccccc1)c1ccc(O)cc1O` [compound 2]: the “cytotoxicity to HASMCs” value in data set [1] (FIG. 11(c), 2 μg/ml) was “would lead to death of a part cells”.
